Results reported in US20250171484A1, “METHOD FOR PRODUCING DISACCHARIDE USING BETA-GLUCOSIDASE AND COFACTOR THEREOF AND COMPOSITION FOR INDUCING ENZYME PRODUCTION OF STRAIN OF GENUS TRICHODERMA COMPRISING PRODUCED DISACCHARIDE” (CJ CheilJedang Corporation, priority 2021, published 2025).

System: β-glucosidase (SEQ ID NO: 1)
Experiment: Disaccharide production from glucose by beta-glucosidase with added divalent metal ion
Format: biochemical, Trichoderma reesei
Settings: for Concentration (g/L) Cellobiose / Concentration (g/L) Gentiobiose / Concentration (g/L) Isomaltose / Concentration (g/L) Maltose / Concentration (g/L) Sophorose / Concentration (g/L) Trehalose / Concentration (g/L) Total: 1 mM ion, 60° C.; for Concentration (g/L) Total: total equals gentiobiose + sophorose; for Increase/decrease rate (%) Gentiobiose / Increase/decrease rate (%) Sophorose / Increase/decrease rate (%) Total: versus no ion added
Protocol: Glucose powder with a purity of 95% or more (hydrous crystalline glucose, Daejung Chemicals & Metals) was dissolved using steam to prepare 40 kg of a glucose solution with a concentration of 71% w/w. 0.3 kg of β-glucosidase (SEQ ID NO: 1) was added at a concentration of 1,650 U/ml to the prepared glucose solution, allowed to stand at 60° C. for 7 days to 21 days to prepare a composition comprising disaccharides (Treated Glucose Syrup, TGS). 0.3 kg of β-glucosidase (same as in Example 1) was added to the glucose solution of Example 1 at a concentration of 1,650 U/ml, and 1 mM of divalent ions [manganese ion (Mn^2+), magnesium ion (Mg^2+), zinc ion (Zn^2+), and copper ion (Cu^2+) each] was further added thereto, and allowed to stand at 60° C. for 7 days to 21 days to prepare a composition containing disaccharides. In the compositions prepared in Examples 1 and 2, the production concentration (g/L) and increase/decrease rate (%) of the disaccharides, i.e. trehalose, isomaltose, maltose, cellobiose, gentiobiose, and sophorose were measured, and the results are shown in Table 1 and Table 2 below. The production concentration was analyzed using a Bio-LC system (Dionex ICS-3000, Sunnyvale, CA, United States) equipped with an electrochemical detector and a CarboPac PAI column.

Concentration (g/L) Cellobiose (standing period 7 days)	Concentration (g/L) Gentiobiose (standing period 7 days)	Concentration (g/L) Isomaltose (standing period 7 days)	Concentration (g/L) Maltose (standing period 7 days)	Concentration (g/L) Sophorose (standing period 7 days)	Concentration (g/L) Trehalose (standing period 7 days)	Concentration (g/L) Total (standing period 7 days)	Increase/decrease rate (%) Gentiobiose (standing period 7 days)	Increase/decrease rate (%) Sophorose (standing period 7 days)	Increase/decrease rate (%) Total (standing period 7 days)	Concentration (g/L) Cellobiose (standing period 14 days)	Concentration (g/L) Gentiobiose (standing period 14 days)	Concentration (g/L) Isomaltose (standing period 14 days)	Concentration (g/L) Maltose (standing period 14 days)	Concentration (g/L) Sophorose (standing period 14 days)	Concentration (g/L) Trehalose (standing period 14 days)	Concentration (g/L) Total (standing period 14 days)	Increase/decrease rate (%) Gentiobiose (standing period 14 days)	Increase/decrease rate (%) Sophorose (standing period 14 days)	Increase/decrease rate (%) Total (standing period 14 days)	SMILES	further results
14.5 g/L	69.5 g/L	8.6 g/L	16.8 g/L	11.6 g/L	21.7 g/L	81.1 g/L	18.9%	67.8%	24.1%	15.4 g/L	78 g/L	12.4 g/L	16.1 g/L	16.5 g/L	14.6 g/L	94.5 g/L	10.5%	29.2%	13.4%	[Mn+2] [Mn^2+, manganese ion (Mn^2+)]	Concentration (g/L) Cellobiose (standing period 21 days): 15.5 g/L; Concentration (g/L) Gentiobiose (standing period 21 days): 86.5 g/L; Concentration (g/L) Isomaltose (standing period 21 days): 15.7 g/L; Concentration (g/L) Maltose (standing period 21 days): 17.1 g/L; Concentration (g/L) Sophorose (standing period 21 days): 23.6 g/L; Concentration (g/L) Trehalose (standing period 21 days): 14.1 g/L; Concentration (g/L) Total (standing period 21 days): 110.2 g/L; Increase/decrease rate (%) Gentiobiose (standing period 21 days): 4.6%; Increase/decrease rate (%) Sophorose (standing period 21 days): 48.7%; Increase/decrease rate (%) Total (standing period 21 days): 11.7%
13.1 g/L	64.3 g/L	6.7 g/L	13.7 g/L	10.8 g/L	21.1 g/L	75.1 g/L	10%	56.8%	15%	15.6 g/L	69.4 g/L	10.6 g/L	14.6 g/L	17.4 g/L	15.3 g/L	86.8 g/L	−1.6%	36.5%	4.2%	[Mg+2] [Mg^2+, magnesium ion (Mg^2+)]	Concentration (g/L) Cellobiose (standing period 21 days): 15.4 g/L; Concentration (g/L) Gentiobiose (standing period 21 days): 74.6 g/L; Concentration (g/L) Isomaltose (standing period 21 days): 13.2 g/L; Concentration (g/L) Maltose (standing period 21 days): 15.4 g/L; Concentration (g/L) Sophorose (standing period 21 days): 23.1 g/L; Concentration (g/L) Trehalose (standing period 21 days): 14.8 g/L; Concentration (g/L) Total (standing period 21 days): 97.7 g/L; Increase/decrease rate (%) Gentiobiose (standing period 21 days): −9.8%; Increase/decrease rate (%) Sophorose (standing period 21 days): 45.3%; Increase/decrease rate (%) Total (standing period 21 days): −0.9%
14.8 g/L	69.9 g/L	7.3 g/L	15.8 g/L	12.6 g/L	22.2 g/L	82.5 g/L	19.7%	82.8%	26.3%	14.9 g/L	81 g/L	9.8 g/L	14.3 g/L	16.4 g/L	14.3 g/L	97.3 g/L	14.7%	28.4%	16.8%	[Zn+2] [Zn^2+, zinc ion (Zn^2+)]	Concentration (g/L) Cellobiose (standing period 21 days): 15 g/L; Concentration (g/L) Gentiobiose (standing period 21 days): 92 g/L; Concentration (g/L) Isomaltose (standing period 21 days): 12.5 g/L; Concentration (g/L) Maltose (standing period 21 days): 15.2 g/L; Concentration (g/L) Sophorose (standing period 21 days): 23.4 g/L; Concentration (g/L) Trehalose (standing period 21 days): 14.5 g/L; Concentration (g/L) Total (standing period 21 days): 115.4 g/L; Increase/decrease rate (%) Gentiobiose (standing period 21 days): 11.3%; Increase/decrease rate (%) Sophorose (standing period 21 days): 47.1%; Increase/decrease rate (%) Total (standing period 21 days): 17%
15.1 g/L	71.7 g/L	8 g/L	18.7 g/L	13.3 g/L	19.4 g/L	85 g/L	22.8%	92.2%	30.1%	15.2 g/L	82.1 g/L	10.3 g/L	15.9 g/L	17 g/L	12.6 g/L	99.1 g/L	16.3%	33.5%	18.9%	[Cu+2] [Cu^2+, copper ion (Cu^2+)]	Concentration (g/L) Cellobiose (standing period 21 days): 15.5 g/L; Concentration (g/L) Gentiobiose (standing period 21 days): 92.4 g/L; Concentration (g/L) Isomaltose (standing period 21 days): 12.4 g/L; Concentration (g/L) Maltose (standing period 21 days): 16.8 g/L; Concentration (g/L) Sophorose (standing period 21 days): 24.3 g/L; Concentration (g/L) Trehalose (standing period 21 days): 13 g/L; Concentration (g/L) Total (standing period 21 days): 116.7 g/L; Increase/decrease rate (%) Gentiobiose (standing period 21 days): 11.7%; Increase/decrease rate (%) Sophorose (standing period 21 days): 53.0%; Increase/decrease rate (%) Total (standing period 21 days): 18.4%
